Data as given in patent US20230293406A1, “Compositions Comprising (Bio)-Alkanediols and Cooling Agents” (Symrise AG, priority 2020, published 2023).
≈ marks a conversion by molar mass, not a printed value. Where two headings read alike, the source gives them in different places.

Columns and labels:
[1] = system: Corynebacterium xerosis; test: Minimum Inhibitory Concentration (MIC) growth inhibition test and Kull Synergy Index; assay type: cell-based; settings: for MIC: Corynebacterium xerosis, read-out: MIC (ppm) Corynebacterium xerosis (converted)
Procedure: (§1) The MIC test is a test on growth inhibition. Estimation of the Minimum Inhibitory Concentration (MIC) is executed in 96 well plates. Through the comparison of bacterial growth with positive and negative controls via optical density (OD), different concentrations of given test substances are evaluated. Bacteria are cultivated under adjusted conditions based on information of the German Collection of Microorganisms and Cell Cultures (DSMZ) and stored in 50% Glycerol prior to use. Afterwards, the following method was applied:
(§2) Adding growth medium (according to microorganism) to each well of the microplate. Adding the test-substances in different concentrations, positive controls (water controls only with medium) and negative controls (benchmarks according to organism). Adding the microorganism in a concentration of 10^6 CFU/ml (CFU=colony forming units). Incubation of the microplates at appropriate conditions.
(§3) According to resulting growth, substance concentrations are labelled either as inhibiting or not and the corresponding MIC is defined as the lowest concentration where a complete growth inhibition is visible. Experiments at concentration limits (highest concentration labelled as growth and lowest concentration labelled as inhibiting) are performed at least twice.
(§4) The synergistic activity of 1,2-alkanediols with cooling compounds was determined by measuring the corresponding minimum inhibitory concentrations (MIC values) according to the method described above for antimicrobial activity: Minimum Inhibitory Concentration (MIC)
(§5) In order to calculate the synergy index with MIC values, the Kull equation (I) was used as follows:
(§6) SI=(MICmix×PA)/MICA+(MICmix×PB)/MICB (I)
(§7) wherein • SI is the Synergy Index according to Kull • MICA is the MIC value for Substance A • MICB is the MIC value for Substance B • MICmix is the MIC value for the mixture of substances A and B • PA is the proportion of the substance A in the mixture • PB is the proportion of the substance B in the mixture
(§8) To verify that the tested combinations act synergistically against microorganisms of the natural microbiota of mammalian skin, a corresponding experiment was conducted with representative microbial species. The synergistic activities of mixtures of 1,2-heptanediol and Menthyl lactate as well as for 1,2-nonanediol and Menthyl lactate were determined by measuring the corresponding minimum inhibitory concentrations (MIC values) as indicated in the methods section.

[2] = system: Staphylococcus hominis; test: as above; assay type: cell-based
Procedure: as §1, §2, §3, §4, §5, §6, §7, §8

[3] = Malodour coverage sensory test, trained panel, filter paper with sweat malodour; settings: for malodour coverage ranking 6 h: after 6 h; for malodour coverage ranking 24 h: after 24 h; for malodour coverage ranking 48 h: after 48 h
Procedure: Malodour coverage was tested in an established setup with a trained panel (n=5-9). For this sensory test, a defined amount of the material was applied on a filter paper together with a defined amount of sweat malodour. For evaluation, the panelists were asked to rate the individual samples on a scale from 0 to 10 (0: odourless; 10: strongest imaginable). The results of the malodour rating for all materials were ranked and the position of the individual materials compared over time. A synergistic effect regarding reduction of malodour was found for all mixtures of Frescolat ML and 1,2-heptanediol after 24 h and 48 h, respectively.

[4] = system: Staphylococcus aureus; test: Minimum Inhibitory Concentration (MIC) growth inhibition test, 96 well plates, OD; assay type: cell-based; settings: Table 1
Procedure: (§9) The MIC test is a test on growth inhibition. Estimation of the Minimum Inhibitory Concentration (MIC) is executed in 96 well plates. Through the comparison of bacterial growth with positive and negative controls via optical density (OD), different concentrations of given test substances are evaluated. Bacteria are cultivated under adjusted conditions based on information of the German Collection of Microorganisms and Cell Cultures (DSMZ) and stored in 50% Glycerol prior to use. Afterwards, the following method was applied: Adding growth medium (according to microorganism) to each well of the microplate. Adding the test-substances in different concentrations, positive controls (water controls only with medium) and negative controls (benchmarks according to organism). Adding the microorganism in a concentration of 10^6 CFU/ml (CFU=colony forming units). Incubation of the microplates at appropriate conditions. According to resulting growth, substance concentrations are labelled either as inhibiting or not and the corresponding MIC is defined as the lowest concentration where a complete growth inhibition is visible. Experiments at concentration limits (highest concentration labelled as growth and lowest concentration labelled as inhibiting) are performed at least twice.

[5] = system: Candida albicans; test: Minimum Inhibitory Concentration (MIC) growth inhibition test; assay type: cell-based; settings: Table 1
Procedure: as §9

[6] = system: Corynebacterium jeikeium; test: as above; assay type: cell-based; settings: Table 1
Procedure: as §9

[7] = system: Escherichia coli; test: as above; assay type: cell-based; settings: Table 1
Procedure: as §9

[8] = system: Propionibacterium acnes; test: as above; assay type: cell-based; settings: Cutibacterium acnes; Table 1; >5000: 5000 ppm tested, no growth inhibition
Procedure: as §9

[9] = Table 3, single substances and mixtures with menthyl lactate
[10] = Table 3, single substances and mixtures with menthyl lactate, read-out: MIC (ppm) Staphylococcus hominis
[11] = Ranking: 1 = lowest malodour to 6 = strongest malodour, Table 6
[12] = Ranking: 1 = lowest malodour to 6 = strongest malodour, Table 5
[13] = Table 4, single substances and mixtures with further cooling agents
[14] = Ranking: 1 = highest malodour to 6 = lowest malodour, single diols at 0.5%, Table 7
[15] = Ranking: 1 = highest malodour to 6 = lowest malodour, single diols at 0.5%, Table 9
[16] = Ranking: 1 = highest malodour to 6 = lowest malodour, single diols at 0.5%, Table 8

CC1CCC(C(C)C)C(OC(=O)C(C)O)C1 (single isomer, unassigned; (-)) [Menthyl lactate, (−)-Menthyl lactate]
MIC [1, 9]: 250 µg/mL | MIC [2, 10]: 250 µg/mL | malodour coverage ranking 6 h [3, 11]: 3.6 | malodour coverage ranking 24 h [3, 12]: 3.6 | malodour coverage ranking 24 h [3, 11]: 3.9 | malodour coverage ranking 48 h [3, 12]: 3.1

CCCCCC(O)CO (stereo not drawn) [1,2-C7, 1,2-heptanediol]
MIC [1, 9]: 5000 µg/mL | MIC (ppm) Corynebacterium xerosis [1, 13]: 5 000 ppm | MIC [2, 10]: 10000 µg/mL | malodour coverage ranking 6 h [3, 14]: 2.3 | malodour coverage ranking 6 h [3, 15]: 3.5 | malodour coverage ranking 24 h [3, 14]: 3.4 | malodour coverage ranking 24 h [3, 15]: 3.1 | malodour coverage ranking 24 h [3, 12]: 3.3 | malodour coverage ranking 48 h [3, 12]: 3.3

CCCCCCC(O)CO (stereo not drawn) [1,2-C8, 1,2-Octanediol]
malodour coverage ranking 24 h [3, 16]: 2.8

CCCCCCCC(O)CO (stereo not drawn) [1,2-C9, 1,2-nonanediol]
MIC (ppm) Corynebacterium xerosis [1, 9]: 2 500 ppm | MIC (ppm) Corynebacterium xerosis [1, 13]: 2 500 ppm | MIC [2, 10]: 1000 µg/mL | malodour coverage ranking 6 h [3, 11]: 4.2 | malodour coverage ranking 24 h [3, 11]: 3.9

CCCCCCCCCC(O)CO (stereo not drawn) [1,2-C11, 1,2-undecandiol]
MIC [4]: 125 µg/mL (≈ 664 µM) | MIC [5]: 64 µg/mL (≈ 340 µM) | MIC [6]: 250 µg/mL (≈ 1330 µM) | MIC [7]: 250 µg/mL (≈ 1330 µM) | MIC [8]: 250 µg/mL (≈ 1330 µM) | MIC ([2]; Table 1, read-out: Minimum Inhibitory Concentration (MIC) Staphylococcus hominis): 125 µg/mL

CCCCC(O)C(C)O (stereo not drawn) [2,3-C7, 2,3-Heptanediol]
MIC [1, 13]: 12500 µg/mL | malodour coverage ranking 6 h [3, 14]: 3.2 | malodour coverage ranking 24 h [3, 14]: 3.5

CCCCCC(O)C(C)O (stereo not drawn) [2,3-C8, 2,3-Octanediol]
malodour coverage ranking 6 h [3, 15]: 2.3 | malodour coverage ranking 24 h [3, 16]: 3.2 | malodour coverage ranking 24 h [3, 15]: 3.4

CCCCCCC(O)C(C)O (stereo not drawn) [2,3-C9, 2,3-nonanediol]
MIC [1, 13]: 2500 µg/mL

CC1CCC(C(C)C)C(OCC(O)CO)C1 (stereo not drawn) [3-((−)-Menthoxy)propane-1,2-diol]
MIC [1, 13]: 500 µg/mL

CC1CCC(C(C)C)C(O)C1 (stereo not drawn) [Menthol]
MIC [1, 13]: 1000 µg/mL
